Data from ChEMBL document CHEMBL1139224, “Discovery and metabolic stabilization of potent and selective 2-amino-N-(adamant-2-yl) acetamide 11beta-hydroxysteroid dehydrogenase type 1 inhibitors” (J Med Chem, 2007).

Columns and labels:
[1] = target: 11-beta-hydroxysteroid dehydrogenase 1 (Mus musculus, UniProt P50172); assay: Inhibition of mouse 11beta-HSD1 expressed in Escherichia coli by SPA
[2] = Intrinsic clearance in human liver microsomes at 1 uM; type: ADME, Microsome
[3] = Intrinsic clearance in mouse liver microsomes at 1 uM; type: ADME, Microsome
[4] = target: T1, 11-beta-hydroxysteroid dehydrogenase type 2 (Homo sapiens, UniProt P80365); assay: Inhibitory activity against human 11beta-HSD2 by SPA
T1 sequence (P80365 whole entry): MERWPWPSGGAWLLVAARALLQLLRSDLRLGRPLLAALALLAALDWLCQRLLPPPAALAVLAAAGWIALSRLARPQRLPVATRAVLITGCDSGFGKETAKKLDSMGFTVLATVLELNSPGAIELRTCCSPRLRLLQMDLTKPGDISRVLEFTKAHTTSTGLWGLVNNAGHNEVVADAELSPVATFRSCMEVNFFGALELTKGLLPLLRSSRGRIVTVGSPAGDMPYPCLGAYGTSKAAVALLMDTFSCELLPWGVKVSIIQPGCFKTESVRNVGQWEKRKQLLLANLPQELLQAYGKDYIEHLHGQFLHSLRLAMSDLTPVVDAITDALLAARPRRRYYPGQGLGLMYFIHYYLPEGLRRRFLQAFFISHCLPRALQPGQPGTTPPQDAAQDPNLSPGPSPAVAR

[5] = target: T2, 11-beta-hydroxysteroid dehydrogenase type 2 (Mus musculus, UniProt P51661); assay: Inhibitory activity against mouse 11beta-HSD2 by SPA
T2 sequence (P51661 whole entry): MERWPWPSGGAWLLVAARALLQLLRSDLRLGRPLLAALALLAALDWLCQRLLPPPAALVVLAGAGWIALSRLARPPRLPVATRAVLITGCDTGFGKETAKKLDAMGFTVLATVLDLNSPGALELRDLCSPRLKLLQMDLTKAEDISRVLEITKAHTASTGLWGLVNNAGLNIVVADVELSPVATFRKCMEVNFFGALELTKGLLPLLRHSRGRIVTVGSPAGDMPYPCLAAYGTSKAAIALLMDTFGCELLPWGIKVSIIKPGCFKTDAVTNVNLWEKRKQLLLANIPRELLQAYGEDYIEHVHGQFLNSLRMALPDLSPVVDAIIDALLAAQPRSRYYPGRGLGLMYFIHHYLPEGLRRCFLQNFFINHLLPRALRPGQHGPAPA

[6] = target: T3, 11-beta-hydroxysteroid dehydrogenase 1 (Homo sapiens, UniProt P28845); assay: Inhibition of human 11beta-HSD1 expressed in Escherichia coli by SPA
T3 sequence (P28845 whole entry): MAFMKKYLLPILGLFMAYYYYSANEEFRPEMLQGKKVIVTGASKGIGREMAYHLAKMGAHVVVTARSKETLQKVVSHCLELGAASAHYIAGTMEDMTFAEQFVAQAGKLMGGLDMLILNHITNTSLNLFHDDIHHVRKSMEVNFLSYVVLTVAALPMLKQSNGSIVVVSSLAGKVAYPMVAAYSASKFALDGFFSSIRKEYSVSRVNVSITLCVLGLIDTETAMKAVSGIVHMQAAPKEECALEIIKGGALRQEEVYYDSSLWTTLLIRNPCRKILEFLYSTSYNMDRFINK

[7] = target: T3, 11-beta-hydroxysteroid dehydrogenase 1; assay: Inhibition of human 11beta-HSD1 expressed in HEK293 cells by FPIA; type: cell-based
[8] = target: 11-beta-hydroxysteroid dehydrogenase 1 (Rattus norvegicus, UniProt P16232); assay: Inhibitory activity against rat 11beta-HSD1
11-beta-hydroxysteroid dehydrogenase 1 (Rattus norvegicus, UniProt P16232), sequence (P16232 whole entry): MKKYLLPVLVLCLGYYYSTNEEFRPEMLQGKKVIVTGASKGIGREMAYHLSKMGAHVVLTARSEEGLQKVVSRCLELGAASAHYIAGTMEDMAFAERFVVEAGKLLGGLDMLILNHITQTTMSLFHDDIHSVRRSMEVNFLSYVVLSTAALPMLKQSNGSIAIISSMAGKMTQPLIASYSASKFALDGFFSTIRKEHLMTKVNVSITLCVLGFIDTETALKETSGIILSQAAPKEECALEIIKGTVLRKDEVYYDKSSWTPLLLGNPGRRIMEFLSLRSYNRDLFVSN

[9] = target: T4, 11-beta-hydroxysteroid dehydrogenase type 2 (Rattus norvegicus, UniProt P50233); assay: Inhibitory activity against rat 11beta-HSD2
T4 sequence (P50233 whole entry): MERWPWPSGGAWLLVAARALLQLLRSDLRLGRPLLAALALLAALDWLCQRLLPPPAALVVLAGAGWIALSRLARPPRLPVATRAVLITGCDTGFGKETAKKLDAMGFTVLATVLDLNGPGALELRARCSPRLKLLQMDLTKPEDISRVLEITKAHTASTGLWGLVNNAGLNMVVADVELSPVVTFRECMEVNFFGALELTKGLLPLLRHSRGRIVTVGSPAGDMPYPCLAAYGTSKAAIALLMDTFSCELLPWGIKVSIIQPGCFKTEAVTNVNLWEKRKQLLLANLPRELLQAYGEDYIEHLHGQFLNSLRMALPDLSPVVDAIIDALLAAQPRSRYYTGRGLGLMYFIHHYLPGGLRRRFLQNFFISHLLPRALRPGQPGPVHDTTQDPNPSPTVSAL

[10] = Intrinsic clearance in rat liver microsomes at 1 uM; type: ADME, Microsome
[11] = Half life in mouse at 10 mg/kg, iv; type: ADME, organism-based; parameters: dose 10 mg/kg, route intravenous; conditions: in vivo
[12] = Volume of distribution in mouse at 10 mg/kg, iv; type: ADME, organism-based; parameters: dose 10 mg/kg, route intravenous; conditions: in vivo, read-out: Vdss
[13] = Plasma clearance in mouse at 10 mg/kg, iv; type: ADME, organism-based; parameters: dose 10 mg/kg, route intravenous
[14] = Half life in mouse at 10 mg/kg, po; type: ADME, organism-based; parameters: dose 10 mg/kg, route oral; conditions: in vivo
Mus musculus = assay: AUC in mouse at 10 mg/kg, po; type: ADME, organism-based, Plasma; parameters: dose 10 mg/kg, route oral; conditions: in vivo
[15] = Oral bioavailability in mouse at 10 mg/kg, po; type: ADME, organism-based; conditions: in vivo

11-beta-hydroxysteroid dehydrogenase 1 (Mus musculus, UniProt P50172), sequence (P50172 whole entry): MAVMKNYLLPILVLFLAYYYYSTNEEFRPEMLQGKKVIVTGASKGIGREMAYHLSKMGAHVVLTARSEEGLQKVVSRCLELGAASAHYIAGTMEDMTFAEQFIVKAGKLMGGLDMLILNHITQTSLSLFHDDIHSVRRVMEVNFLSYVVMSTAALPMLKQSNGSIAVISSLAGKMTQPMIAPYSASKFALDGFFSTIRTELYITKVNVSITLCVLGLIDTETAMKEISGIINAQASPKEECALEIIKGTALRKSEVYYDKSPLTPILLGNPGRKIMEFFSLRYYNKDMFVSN

Ki [1]	CLint scaled at 1 µM [2]	CLint scaled at 1 µM [3]	IC50 [4]	IC50 [5]	Ki [6]	IC50 [7]	Ki [8]	IC50 [9]	CLint scaled at 1 µM [10]	half-life [11]	Vd [12]	clearance [13]	half-life [14]	AUC (Mus musculus)	bioavailability [15]	SMILES
51 nM	167 mL/min/kg	2370 mL/min/kg	–	–	–	–	–	–	–	–	–	–	–	–	–	O=C(CN1CCN(c2ccc(C(F)(F)F)cn2)CC1)NC1C2CC3CC(C2)CC1C3 (stereo not drawn)
910 nM	16.7 mL/min/kg	933 mL/min/kg	–	–	–	–	–	–	–	–	–	–	–	–	–	CC(C(=O)N[C@H]1C2C[C@]3(O)CC1C[C@](F)(C2)C3)N1CCN(c2ccc(C(F)(F)F)cn2)CC1 (mixture of isomers)
–	100 mL/min/kg	2170 mL/min/kg	> 100000 nM	> 100000 nM	–	–	–	–	–	–	–	–	–	–	–	CC(C)(C(=O)N[C@H]1C2CC3CC1C[C@](O)(C3)C2)N1CCN(c2ccc(C(F)(F)F)cn2)CC1
18 nM	50 mL/min/kg	183 mL/min/kg	–	–	–	–	–	–	–	–	–	–	–	–	–	CO[C@]12CC3CC(C1)[C@@H](NC(=O)C(C)N1CCN(c4ccc(C(F)(F)F)cn4)CC1)C(C3)C2 (mixture of isomers)
21 nM	583 mL/min/kg	1050 mL/min/kg	–	–	–	–	–	–	–	–	–	–	–	–	–	O=C(CN1CCN(c2ccc(Cl)cc2)CC1)NC1C2CC3CC(C2)CC1C3 (stereo not drawn)
4100 nM	< 16.7 mL/min/kg	< 100 mL/min/kg	–	–	–	–	–	–	–	–	–	–	–	–	–	CC(C(=O)N[C@H]1C2C[C@@]3(O)CC1C[C@@](O)(C2)C3)N1CCN(c2ccc(C(F)(F)F)cn2)CC1 (mixture of isomers)
33 nM	< 16.7 mL/min/kg	233 mL/min/kg	–	–	–	–	–	–	–	–	–	–	–	–	–	CC(C(=O)N[C@H]1C2C[C@@]3(O)CC1C[C@@](F)(C2)C3)N1CCN(c2ccc(C(F)(F)F)cn2)CC1 (mixture of isomers)
5 nM	16.7 mL/min/kg	–	–	–	4 nM	26 nM	–	–	–	–	–	–	–	–	–	C[C@@H](C(=O)N[C@H]1C2CC3CC1C[C@](O)(C3)C2)N1CCN(c2ccc(C(F)(F)F)cn2)CC1 (stereo in doubt; (R)-22f)
110 nM	217 mL/min/kg	5130 mL/min/kg	> 100000 nM	> 100000 nM	180 nM	> 10000 nM	–	–	–	–	–	–	–	–	–	O=C(CN1CCN(c2ccc(C(F)(F)F)cn2)CC1)NC1C2CC3CC(C2)CC1(O)C3 (racemic)
110 nM	233 mL/min/kg	< 100 mL/min/kg	> 100000 nM	> 100000 nM	26 nM	450 nM	–	–	–	–	–	–	–	–	–	O=C(CN1CCN(c2ccc(C(F)(F)F)cn2)CC1)N[C@H]1C2CC3CC1C[C@@](F)(C3)C2
24 nM	< 16.7 mL/min/kg	< 100 mL/min/kg	> 100000 nM	> 100000 nM	21 nM	450 nM	–	–	–	–	–	–	–	–	–	C[C@@H](C(=O)N[C@H]1C2CC3CC1C[C@](O)(C3)C2)N1CC[C@@H](F)C1
5 nM	33.3 mL/min/kg	333 mL/min/kg	62000 nM	> 100000 nM	4 nM	21 nM	13 nM	> 100000 nM	567 mL/min/kg	30 min	2.7 L/kg	155 mL/min/kg	252 min	0.2 ug/hr.ml	19%	CC(C(=O)N[C@H]1C2CC3CC1C[C@](O)(C3)C2)N1CCc2ccc3c(c2CC1)OCO3 (stereo partly drawn)
120 nM	33.3 mL/min/kg	2270 mL/min/kg	> 20000 nM	> 100000 nM	32 nM	550 nM	–	–	–	–	–	–	–	–	–	O=C(CN1CCN(c2ccc(C(F)(F)F)cn2)CC1)N[C@H]1C2CC3CC1C[C@](F)(C3)C2
7 nM	< 16.7 mL/min/kg	383 mL/min/kg	–	> 100000 nM	–	–	52 nM	> 100000 nM	66.7 mL/min/kg	18 min	1.2 L/kg	120 mL/min/kg	60 min	0.8 ug/hr.ml	58%	CC(C(=O)N[C@H]1C2CC3CC1C[C@](O)(C3)C2)N1CC(Oc2ccccc2F)C1 (stereo partly drawn)
260 nM	–	–	–	–	7 nM	36 nM	–	–	–	–	–	–	–	–	–	C[C@@H](C(=O)N[C@H]1C2CC3CC1C[C@](O)(C3)C2)N1CCN(c2ccc(C(F)(F)F)cn2)CC1 (stereo in doubt; (S)-22f)
300 nM	183 mL/min/kg	1080 mL/min/kg	> 10000 nM	> 100000 nM	67 nM	> 15000 nM	–	–	–	–	–	–	–	–	–	O=C(CN1CCN(c2ccc(C(F)(F)F)cn2)CC1)N[C@H]1C2CC3CC1C[C@@](O)(C3)C2
180 nM	< 16.7 mL/min/kg	1000 mL/min/kg	–	–	–	–	–	–	–	–	–	–	–	–	–	CO[C@]12CC3C[C@](O)(CC(C1)C3NC(=O)C(C)(C)N1CCN(c3ccc(C(F)(F)F)cn3)CC1)C2 (stereo partly drawn)
470 nM	< 16.7 mL/min/kg	383 mL/min/kg	–	–	–	–	–	–	–	–	–	–	–	–	–	CC(C)(C(=O)N[C@H]1C2C[C@@]3(O)CC1C[C@@](O)(C2)C3)N1CCN(c2ccc(C(F)(F)F)cn2)CC1
53 nM	1830 mL/min/kg	6330 mL/min/kg	> 100000 nM	> 100000 nM	14 nM	260 nM	–	–	–	–	–	–	–	–	–	N#Cc1cccnc1N1CCN(CC(=O)NC2C3CC4CC(C3)CC2C4)CC1 (stereo not drawn)
9 nM	< 16.7 mL/min/kg	< 100 mL/min/kg	> 100000 nM	> 100000 nM	12 nM	180 nM	–	–	–	–	–	–	–	–	–	C[C@H](C(=O)N[C@H]1C2CC3CC1C[C@](O)(C3)C2)N1CC[C@@H](F)C1
2 nM	< 16.7 mL/min/kg	1000 mL/min/kg	> 100000 nM	> 100000 nM	3 nM	35 nM	3 nM	> 100000 nM	467 mL/min/kg	–	–	–	–	–	–	O=C(CN1CC[C@H](C(F)(F)F)C1)N[C@H]1C2CC3CC1C[C@](O)(C3)C2
